Experimental data as given in patent US20170369444A1, “INHIBITORS OF HISTONE DEMETHYLASES” (Gilead Sciences, Inc., priority 2014, published 2017).

How the values were obtained:
Format in all cases: biochemical
KDM4C (JMJD2C) = target: T1, KDM4C (JMJD2C) (Homo sapiens, UniProt Q9H3R0); assay: Histone lysine demethylase AlphaLISA assay, KDM4C; conditions: in vitro enzyme, read-out: KDM4C IC50 (HDME Inhibition)
T1 construct: 1-349; host or cells: E. coli
T1 sequence (Q9H3R0 1-349): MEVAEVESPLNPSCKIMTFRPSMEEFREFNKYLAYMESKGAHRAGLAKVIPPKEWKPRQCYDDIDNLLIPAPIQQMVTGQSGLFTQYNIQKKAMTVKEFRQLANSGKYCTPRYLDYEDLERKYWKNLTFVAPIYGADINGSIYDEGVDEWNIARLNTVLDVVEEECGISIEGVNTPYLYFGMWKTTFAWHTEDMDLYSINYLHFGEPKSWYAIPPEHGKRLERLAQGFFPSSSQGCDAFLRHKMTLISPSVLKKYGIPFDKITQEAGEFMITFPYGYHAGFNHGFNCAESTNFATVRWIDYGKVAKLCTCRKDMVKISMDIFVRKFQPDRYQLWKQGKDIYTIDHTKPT
Protocol: Histone lysine demethylase AlphaLISA assays are performed to determine IC50 values. […] Assays are performed analogously to the protocol described by PerkinElmer (Roy et al. PerkinElmer Technical Note: AlphaLISA #12, April 2011).
Assays are performed analogously to the protocol described by PerkinElmer (Roy et al. PerkinElmer Technical Note: AlphaLISA #12, April 2011).
Enzymes (final assay concentration 0.1-2.5 nM) are dissolved in enzyme buffer and incubated for 10 min before 5 μL is added to 5 μL 3% DMSO solutions of compounds in enzyme buffer, incubated for another 10 minutes, before 5 μL substrate solution is added and the reaction mixture is incubated at room temperature. 10 μL acceptor beads, suspended Epigenetic Buffer (Perkin Elmer AL008) from stock, are added and the suspension is incubated in the dark at room temperature, before 10 μL suspension of streptavidin donor beads (Perkin Elmer 6760002) in Epigenetic Buffer is added. After incubation at room temperature in the dark the plates are read.
Substrate solution: Substrate (final assay concentration 50-200 nM), 50 mM Hepes (pH 7.4-8.0), 0.003% Tween-20, 0.1% BS, 25 μM L-Asc, 10 μM α-KG. Enzyme Buffer: 50 mM Hepes (pH 7.4-8.0), 0.003% Tween-20, 0.1% BSA; 5 μM (NH4)2Fe(SO4)2

KDM2B (FBXL10) = target: T2, KDM2B (FBXL10) (Homo sapiens, UniProt Q8NHM5); assay: Histone lysine demethylase AlphaLISA assay, KDM2B; conditions: in vitro enzyme, read-out: KDM2B IC50 (HDME Inhibition)
T2 construct: 1-650; purchased BPS Bioscience, US; host or cells: Bac (baculovirus/insect cells)
T2 sequence (Q8NHM5 1-650): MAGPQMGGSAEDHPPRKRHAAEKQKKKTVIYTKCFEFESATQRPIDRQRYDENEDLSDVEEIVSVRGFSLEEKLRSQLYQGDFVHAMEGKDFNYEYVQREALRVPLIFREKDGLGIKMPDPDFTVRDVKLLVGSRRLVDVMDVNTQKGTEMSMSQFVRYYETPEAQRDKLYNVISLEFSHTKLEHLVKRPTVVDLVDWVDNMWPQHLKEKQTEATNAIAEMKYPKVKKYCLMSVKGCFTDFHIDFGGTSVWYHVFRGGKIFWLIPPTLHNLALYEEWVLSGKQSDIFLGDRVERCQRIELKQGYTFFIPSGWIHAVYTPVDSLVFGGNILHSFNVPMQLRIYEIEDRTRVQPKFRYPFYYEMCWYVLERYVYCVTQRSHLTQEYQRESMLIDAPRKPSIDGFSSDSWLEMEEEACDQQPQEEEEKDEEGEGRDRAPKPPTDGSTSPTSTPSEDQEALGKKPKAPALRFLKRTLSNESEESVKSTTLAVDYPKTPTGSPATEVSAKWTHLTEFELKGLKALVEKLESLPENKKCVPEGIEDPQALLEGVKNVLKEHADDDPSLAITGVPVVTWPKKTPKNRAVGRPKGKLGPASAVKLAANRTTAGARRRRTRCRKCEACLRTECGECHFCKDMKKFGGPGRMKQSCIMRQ

KDM5B (PLU-1) = target: T3, KDM5B (PLU-1) (Homo sapiens, UniProt Q9UGL1); assay: Histone lysine demethylase AlphaLISA assay, KDM5B; conditions: in vitro enzyme, read-out: KDM5B IC50 (HDME Inhibition)
T3 construct: 1-809; host or cells: E. coli
T3 sequence (Q9UGL1 1-809): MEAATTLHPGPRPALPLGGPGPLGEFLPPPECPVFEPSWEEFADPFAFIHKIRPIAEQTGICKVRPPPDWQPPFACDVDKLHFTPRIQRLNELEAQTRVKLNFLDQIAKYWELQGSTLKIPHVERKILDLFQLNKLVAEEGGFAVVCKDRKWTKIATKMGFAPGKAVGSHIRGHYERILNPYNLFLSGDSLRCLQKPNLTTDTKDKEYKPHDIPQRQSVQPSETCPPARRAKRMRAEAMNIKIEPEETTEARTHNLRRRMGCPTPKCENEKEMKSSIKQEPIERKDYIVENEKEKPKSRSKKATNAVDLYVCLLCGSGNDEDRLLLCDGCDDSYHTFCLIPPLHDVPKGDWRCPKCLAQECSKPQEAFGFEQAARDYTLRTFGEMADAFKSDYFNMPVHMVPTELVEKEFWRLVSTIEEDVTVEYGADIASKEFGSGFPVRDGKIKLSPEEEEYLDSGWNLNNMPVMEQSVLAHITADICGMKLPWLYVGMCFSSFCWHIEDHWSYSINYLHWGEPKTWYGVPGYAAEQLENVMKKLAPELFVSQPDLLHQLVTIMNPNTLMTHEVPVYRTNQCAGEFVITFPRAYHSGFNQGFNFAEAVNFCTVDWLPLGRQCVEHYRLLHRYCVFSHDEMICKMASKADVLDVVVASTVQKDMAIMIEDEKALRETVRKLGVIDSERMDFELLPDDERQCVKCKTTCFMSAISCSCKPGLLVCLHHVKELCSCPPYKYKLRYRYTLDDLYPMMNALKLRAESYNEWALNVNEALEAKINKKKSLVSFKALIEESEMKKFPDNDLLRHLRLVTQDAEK

KDM6A (UTX) = target: T4, KDM6A (UTX) (Homo sapiens, UniProt O15550); assay: Histone lysine demethylase AlphaLISA assay, KDM6A; conditions: in vitro enzyme, read-out: KDM6A IC50 (HDME Inhibition)
T4 construct: 919-1401; host or cells: E. coli
T4 sequence (O15550 919-1401): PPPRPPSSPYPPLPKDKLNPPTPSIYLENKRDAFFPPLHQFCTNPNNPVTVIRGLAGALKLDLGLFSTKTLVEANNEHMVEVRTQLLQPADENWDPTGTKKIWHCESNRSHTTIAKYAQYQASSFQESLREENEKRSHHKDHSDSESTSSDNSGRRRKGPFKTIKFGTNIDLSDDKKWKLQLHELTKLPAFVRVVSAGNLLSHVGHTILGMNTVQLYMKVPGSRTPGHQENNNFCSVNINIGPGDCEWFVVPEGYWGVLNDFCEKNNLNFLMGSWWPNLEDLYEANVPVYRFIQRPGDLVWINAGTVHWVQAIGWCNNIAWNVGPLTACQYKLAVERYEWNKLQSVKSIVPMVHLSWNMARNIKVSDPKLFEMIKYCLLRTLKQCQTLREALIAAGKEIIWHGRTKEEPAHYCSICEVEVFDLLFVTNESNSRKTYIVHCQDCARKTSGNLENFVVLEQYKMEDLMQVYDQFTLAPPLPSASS

PHF8 (KDM7) = PHF8 (KDM7) (Homo sapiens, UniProt Q9UPP1); assay: Histone lysine demethylase AlphaLISA assay, PHF8; conditions: in vitro enzyme, read-out: PHF8 IC50 (HDME Inhibition)
Chain of PHF8 (KDM7) (Q9UPP1 whole entry): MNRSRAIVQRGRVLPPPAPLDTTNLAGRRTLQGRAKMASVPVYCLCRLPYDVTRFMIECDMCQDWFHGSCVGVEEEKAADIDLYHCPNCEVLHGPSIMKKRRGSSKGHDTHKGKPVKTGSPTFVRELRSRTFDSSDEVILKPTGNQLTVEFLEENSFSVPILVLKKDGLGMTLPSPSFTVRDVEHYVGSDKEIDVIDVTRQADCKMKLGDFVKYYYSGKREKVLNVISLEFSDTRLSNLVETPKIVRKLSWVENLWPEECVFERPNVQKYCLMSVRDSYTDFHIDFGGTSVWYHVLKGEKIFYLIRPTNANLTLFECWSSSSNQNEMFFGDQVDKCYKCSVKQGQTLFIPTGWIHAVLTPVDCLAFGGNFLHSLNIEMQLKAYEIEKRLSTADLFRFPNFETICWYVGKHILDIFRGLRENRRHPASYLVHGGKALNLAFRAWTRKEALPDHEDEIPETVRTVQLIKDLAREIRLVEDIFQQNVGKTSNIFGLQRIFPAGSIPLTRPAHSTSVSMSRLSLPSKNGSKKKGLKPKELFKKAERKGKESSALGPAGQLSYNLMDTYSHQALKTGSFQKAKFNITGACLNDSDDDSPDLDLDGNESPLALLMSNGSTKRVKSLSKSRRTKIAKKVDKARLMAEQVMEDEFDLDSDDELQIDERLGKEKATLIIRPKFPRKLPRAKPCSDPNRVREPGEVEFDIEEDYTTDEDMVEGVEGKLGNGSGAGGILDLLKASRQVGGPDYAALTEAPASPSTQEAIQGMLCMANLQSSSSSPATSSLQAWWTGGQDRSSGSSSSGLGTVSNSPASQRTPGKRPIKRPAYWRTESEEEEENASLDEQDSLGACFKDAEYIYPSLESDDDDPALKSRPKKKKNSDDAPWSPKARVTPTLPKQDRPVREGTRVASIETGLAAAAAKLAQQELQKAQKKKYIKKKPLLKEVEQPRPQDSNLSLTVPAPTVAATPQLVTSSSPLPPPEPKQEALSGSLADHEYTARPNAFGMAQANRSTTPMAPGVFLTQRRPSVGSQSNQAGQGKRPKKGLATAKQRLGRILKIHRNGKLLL

| Compound | IC50 (KDM4C (JMJD2C)) [nM] | IC50 (KDM2B (FBXL10)) [nM] | IC50 (KDM5B (PLU-1)) [nM] | IC50 (KDM6A (UTX)) [nM] | IC50 (PHF8 (KDM7)) [nM] |
| --- | --- | --- | --- | --- | --- |
| C=CCN(CC=C)C(=O)[C@@H](CCCCN(CCC)C(=O)OC(C)(C)C)NCc1cc(C(=O)O)ccn1 [Compound 4, 2-({[(1R)-1-[bis(prop-2-en-1-yl)carbamoyl]-5-{[(tert-butoxy)carbonyl](propyl)amino}pentyl]amino}methyl)pyridine-4-carboxylic acid] | > 2500 | 250 to 2500 | > 2500 |  |  |
| C=CCN(CC=C)C(=O)[C@H](CC(=O)NCCCN(C)C)NCc1cc(C(=O)O)ccn1 [Compound 10, 2-({[(1S)-1-[bis(prop-2-en-1-yl)carbamoyl]-2-{[3-(dimethylamino)propyl]carbamoyl}ethyl]amino}methyl)pyridine-4-carboxylic acid] | > 2500 | > 2500 | < 250 |  |  |
| C=CCN(CC=C)C(=O)[C@H](CCCCN(C)C(C)=O)NCc1cc(C(=O)O)ccn1 [Compound 21, 2-({[(1S)-1-[bis(prop-2-en-1-yl)carbamoyl]-5-(N-methylacetamido)pentyl]amino}methyl)pyri-dine-4-carboxylic acid] | > 2500 |  | 250 to 2500 | > 2500 |  |
| CC(NCc1nccs1)c1cc(C(=O)O)ccn1 (stereo not shown) [Compound 41, 2-{1-[(1,3-thiazol-2-ylmethyl)amino]ethyl} pyridine-4-carboxylic acid] | 250 to 2500 | 250 to 2500 | 250 to 2500 |  |  |
| CSCC(NCC(=O)N1CCCCC1)c1cc(C(=O)O)ccn1 (stereo not shown) [Compound 42, 2-[2-(methylsulfanyl)-1-{[2-oxo-2-(piperidin-1-yl)ethyl]amino}ethyl] pyridine-4-carboxylic acid] | > 2500 |  | > 2500 | > 2500 |  |
| CC(NCC(=O)N1CCCCC1)c1cc(C(=O)O)ccn1 (stereo not shown) [Compound 48, 2-(1-{[2-oxo-2-(piperidin-1-yl)ethyl]amino}ethyl) pyridine-4-carboxylic acid] | 250 to 2500 | 250 to 2500 | 250 to 2500 |  |  |
| O=C(O)c1ccnc(CN2CCCCn3ccnc3C2)c1 [Compound 51, 2-{5H,6H,7H,8H,9H,10H-imidazo[1,2-a][1,4]diazocin-9-ylmethyl}pyridine-4-carboxylic acid] | < 250 |  |  | > 2500 | 250 to 2500 |
| Cc1cn2c(n1)CCN(Cc1cc(C(=O)O)ccn1)CCC2 [Compound 67, 2-({2-methyl-5H,6H,7H,8H,9H,10H-imidazo[1,2-a][1,5]diazocin-8-yl}methyl)pyridine-4-carboxylic acid] | > 2500 |  | > 2500 | > 2500 |  |
| CCNC(=O)C[C@@H]1CCCCN1Cc1cc(C(=O)O)ccn1 [Compound 71, 2-{[(2S)-2-[(ethylcarbamoyl)methyl]piperidin-1-yl]methyl}pyridine-4-carboxylic acid] | > 2500 |  | > 2500 | > 2500 |  |
| COc1ccc([C@@H](C)N2CC[C@H](CNCc3cc(C(=O)O)ccn3)C2=O)cc1 [Compound 79, 2-[({[(3R)-1-[(1R)-1-(4-methoxyphenyl)ethyl]-2-oxopyrrolidin-3-yl]methyl}amino)methyl]pyridine-4-carboxylic acid] | < 250 |  | < 250 | 250 to 2500 |  |
| C[C@H](c1ccccc1)N1CC[C@H](CNCc2cc(C(=O)O)ccn2)C1=O [Compound 82, 2-[({[(3R)-2-oxo-1-[(1R)-1-phenylethyl]pyrrolidin-3-yl]methyl}amino)methyl]pyridine-4-carboxylic acid] | < 250 |  | < 250 | 250 to 2500 |  |
| CCN1CCC[C@@H](CNCc2cc(C(=O)O)ccn2)C1=O [Compound 104, 2-[({[(3S)-1-ethyl-2-oxopiperidin-3-yl]methyl}amino)methyl]pyridine-4-carboxylic acid] | 250 to 2500 |  | < 250 | > 2500 | 250 to 2500 |

Now from value to compound:

| IC50 (KDM4C (JMJD2C)) [nM] | IC50 (KDM2B (FBXL10)) [nM] | IC50 (KDM5B (PLU-1)) [nM] | IC50 (KDM6A (UTX)) [nM] | IC50 (PHF8 (KDM7)) [nM] | Compound |
| --- | --- | --- | --- | --- | --- |
| < 250 |  | < 250 | > 2500 |  | O=C(O)c1cnnc(CNCC(=O)N2CCCCC2)c1 [Compound 26, 6-({[2-oxo-2-(piperidin-1-yl)ethyl]amino}methyl) pyridazine-4-carboxylic acid] |
| > 2500 |  | 250 to 2500 | > 2500 |  | CC(C)C[C@H](CO)NC(C)c1cc(C(=O)O)ccn1 (stereo partly drawn) [Compound 33, 2-(1-{[(2R)-1-hydroxy-4-methylpentan-2-yl]amino}ethyl)pyridine-4-carboxylic acid] |
| 250 to 2500 |  |  | > 2500 | > 2500 | O=C(O)c1ccnc(CN2CCCn3ccnc3C2)c1 [Compound 53, 2-{5H,6H,7H,8H,9H-imidazo[1,2-a][1,4]diazepin-8-ylmethyl}pyridine-4-carboxylic acid] |
| > 2500 |  | > 2500 | > 2500 |  | O=C(O)c1ccnc(CN2CCCC[C@@H]2CC(=O)N2CCCCC2)c1 [Compound 72, 2-{[(2R)-2-[2-oxo-2-(piperidin-1-yl)ethyl]piperidin-1-yl]methyl}pyridine-4-carboxylic acid] |
| 250 to 2500 |  | < 250 | > 2500 |  | O=C(O)c1ccnc(CNC2CCn3ccnc32)c1 (stereo not shown) [Compound 93, 2-[({5H,6H,7H-pyrrolo[1,2-a]imidazol-7-yl}amino)methyl]pyri-dine-4-carboxylic acid] |
| > 2500 |  | > 2500 | > 2500 |  | O=C(O)c1ccnc(CNC2CCCc3cccnc32)c1 (stereo not shown) [Compound 94, 2-{[(5,6,7,8-tetrahydroquinolin-8-yl)amino]methyl} pyridine-4-carboxylic acid] |
| 250 to 2500 | 250 to 2500 | < 250 |  |  | O=C(O)c1ccnc(CNC2CCc3cccnc32)c1 (stereo not shown) [Compound 98, 2-[({5H,6H,7H-cyclopenta[b]pyridin-7-yl}amino)methyl]pyri-dine-4-carboxylic acid] |
